{"source": "patent US8507547B2", "about": "“Anti-fatigue agents and oral compositions containing andrographolide as active ingredient” (Suntory Holdings Limited, priority 2007, dated 2013)", "type_in_all_cases": "in vivo", "key": {"[1]": {"tested_on": "fatigue animal models such as mice and rats", "assay": "Fatigue animal models such as mice and rats (summary of effective intake)", "experimental": "Accordingly, the amount of andrographolide to be contained in the composition of the present invention is 0.01-500 mg per kilogram of body weight, preferably 0.1-50 mg per kilogram of body weight, more preferably 0.1-10 mg per kilogram of body weight, especially preferably 0.25-10 mg per kilogram of body weight, per daily amount of the composition to be taken by animals including humans. Especially in the case in which andrographolide is to be orally administered to humans (adult) to obtain anti-fatigue action, it is generally suitable to administer 0.1-100 mg of andrographolide, preferably 0.1-50 mg, more preferably 0.1-10 mg, especially preferably 0.25-10 mg, per daily amount of andrographolide to be taken."}, "Sprague Dawley rats": {"tested_on": "Sprague Dawley rats", "assay": "Forced exercise test (amount of spontaneous exercise after treadmill exercise stress)", "conditions": "2 mg per kilogram of body weight orally after 3 hours treadmill exercise stress; FIG. 3", "experimental": "The third test is measurement of an amount of spontaneous exercise in a forced exercise test. This is described in detail below in Example 3. Rats were forced to exercise on a treadmill, and thereafter the test substance was administered. Then, the amount of spontaneous exercise of the animal was measured. Since this animal model is an exercise fatigue (physical fatigue) model, anti-fatigue action against physical fatigue would be confirmed if increase in the amount of spontaneous exercise is observed after the administration of the test substance. Such anti-fatigue action is considered to be involved in improving endurance and exercise performance.\nSix-week-old male Sprague Dawley rats were used as a test animal. On the day before the test was started, the rats were divided into five groups each having eight rats, and all of the rats were deprived of food since the morning of the test day. […] Thereafter, the rats were moved into a spontaneous exercise measuring device having an infrared sensor (Supermex, Muromachi Kikai Co., Ltd.), and an amount of spontaneous exercise was measured during a period of 0-2 hours (exploration) and a period of 2-14 hours (dark period). […]"}, "[2]": {"assay": "Safety of administered andrographolide (1000 mg per kilogram of body weight)", "conditions": "1000 mg of andrographolide per kilogram of body weight", "experimental": "Andrographis paniculata containing andrographolide has conventionally been taken in orally and is considered to be infinitely safe. […] It should be noted, however, that there is a report saying that, when an infusion (0.5 g per mouse) or a water extract (1 g of crude drug per mouse) of Andrographis paniculata was injected into abdominal cavities of two mice, they died within 24 hours (Chuyakudaijiten, First Issue, Vol. 3). […] Accordingly, the andrographolide in the composition of the present invention is an active ingredient that is infinitely safe. Thus the amount of andrographolide to be contained is not particularly limited, as long as the amount is adequate to produce a desired effect and not to be toxic; the amount can be appropriately determined according to targets, pathological condition and the stage of illness, impact on taste (slightly bitter), and other factors."}}}
{"compound": "C=C1CC[C@@H]2[C@](C)(CO)[C@H](O)CC[C@@]2(C)[C@@H]1C/C=C1/C(=O)OC[C@H]1O", "note": "[andrographolide]", "values": [{"measurement": "intake producing desired anti-fatigue action", "setting": "[1]; taken in advance or during fatigue stress to prevent or reduce mental, physical and organ fatigue", "value": "0.25-200 mg per kilogram of body weight"}, {"measurement": "intake producing desired anti-fatigue action", "setting": "[1]; taken in to promote recovery from physical fatigue already developed", "value": "0.5-8 mg per kilogram of body weight"}, {"measurement": "amount of spontaneous exercise", "setting": "Sprague Dawley rats", "value": "increase in the amount of spontaneous exercise was observed"}, {"measurement": "abnormality after administration", "setting": "[2]", "value": "no abnormality was observed"}]}
